According to patent US7919673B2, “Transgenic pig with altered incretin function” (Ludwig-Maximilians-Universitat, priority 2008, dated 2011):
Entries after “also recorded” stand apart in the source; their conditions may differ.

Key:
[1] = test system: GIPR^dn transgenic (tg) and control (wt) pigs; experiment: GIP/Exendin-4 stimulation test in 10- to 13-week-old pigs; type: in vivo, pig; details: for insulinotropic effect in GIPR^dn transgenic pigs compared to controls: 10- to 13-week-old (eleven-week-old) pigs, intravenously administrated with glucose
Excerpt: (§1) For the oral glucose tolerance test (OGTT), one central venous catheter (Cavafix® Certo®, B. Braun, Melsungen, Germany) was inserted non-surgically into the external jugular vein under general anesthesia according to the manufacturer's instructions. For accomplishment of the GIP/Exendin-4 stimulation test as well as the intravenous glucose tolerance test, two central venous catheters (Cavafix® Certo®, B. Braun) were surgically inserted into the external jugular vein under general anesthesia using a modified method of Moritz et al. (24). At the start of the study period, all animals had fully recovered from the surgical procedure as evaluated by normal behavior and food intake.
(§2) The OGTT was performed in 11-week old and 5-month-old non-restrained, freely moving animals. After an 18-h overnight fast, animals were fed 2 g/kg BW glucose (25) mixed with 100 g of commercial pig fodder (Deuka primo care in 11-week-old pigs; Deuka porfina U in 5-month-old pigs; Deuka, Düsseldorf, Germany). The meal was eaten from a bowl under supervision. Blood samples were obtained from the jugular vein catheter at −10, 0, 15, 30, 45, 60, 90 and 120 minutes relative to the glucose load in 11-week-old pigs and at −15, −5, 0, 15, 30, 45, 60, 90, 120, 150 and 180 minutes relative to the glucose load in 5-month-old pigs. Serum glucose levels were determined using an AU 400 autoanalyzer (Olympus, Hamburg, Germany) while serum insulin levels were measured in duplicate using a porcine insulin radioimmunoassay (RIA) kit (Millipore, Billerica, USA) according to the manufacturer's instructions.
(§3) The GIP/Exendin-4 stimulation test was performed in 10- to 13-week old and 7-months-old (28-36 weeks) non-restrained freely moving animals. In 7-months-old animals, 0.5 g glucose/kg BW were administered intravenously as a bolus of concentrated 50% glucose solution following an 18-hour fasting period (26). After three minutes 20 pmol/kg BW of synthetic porcine GIP (Bachem, Weil am Rhein, Germany) or 10 pmol/kg BW of synthetic Exendin-4 (Bachem) were administered intravenously. Blood samples were collected −15, 0, 1, 3, 6, 9, 11, 13, 18, 23, 28, 33, 48 and 60 minutes relative to the glucose load. In 10- to 13-week-old animals, 0.5 g glucose/kg BW were administered intravenously as a bolus of concentrated 50% glucose solution following an 18-hour fasting period (26). Right after glucose administration 80 pmol/kg BW of synthetic porcine GIP (Bachem, Weil am Rhein, Germany) or 40 pmol/kg BW of synthetic Exendin-4 (Bachem) were administered intravenously. […]
(§4) All data are presented as means±SEM. […] Data from the GIP/Exendin-4 stimulation tests in 10- to 13-week-old animals as well as from proliferation index (Ki67 immunohistochemistry) were analyzed using ANOVA (analysis of variance) (SAS). […]

[2] = test system: GIPR^dn transgenic (tg) and control (wt) pigs; experiment: GIP/Exendin-4 stimulation test in 7-months-old (28-36 weeks) pigs; type: in vivo, pig; details: 28- to 36-week-old; for insulin secretion compared to glucose administration alone: 10 pmol/kg BW Exendin-4 i.v. 3 min after i.v. glucose, p<0.05
Excerpt: as §1, §2, §3, §4

Substance	insulinotropic effect in GIPR^dn transgenic pigs compared to controls [1]	insulin secretion in GIPR^dn transgenic pigs compared to controls ([1]; 10- to 13-week-old pigs, 40 pmol/kg BW Exendin-4 i.v. together with 0.5 g/kg i.v. glucose, p<0.01)	insulin secretion compared to glucose administration alone ([2]; GIPR^dn transgenic pigs)	insulin secretion compared to glucose administration alone ([2]; control pigs)	serum insulin levels in control pigs compared to GIPR^dn transgenic pigs ([1]; 10- to 13-week-old pigs, 80 pmol/kg BW GIP i.v. together with 0.5 g/kg i.v. glucose)	increase in glucose-induced insulin concentration (Δ insulin) ([2]; GIPR^dn transgenic pigs, 20 pmol/kg BW GIP i.v. 3 min after 0.5 g/kg i.v. glucose, glucose alone 7 μU/ml) [μU/ml]	increase in i.v. glucose-induced serum insulin concentration (Δ insulin) ([2]; control (wt) pigs, 20 pmol/kg BW GIP i.v. 3 min after 0.5 g/kg i.v. glucose, glucose alone 27 μU/ml) [μU/ml]
Exendin-4	enhanced	increased insulin secretion; also recorded: significantly higher increase	significant stimulation; also recorded: significant increase	significant increase	–	–	–
glucose-dependent insulinotropic polypeptide [GIP]	blunted; also recorded: impaired	–	–	–	significantly (p<0.01) higher insulin levels	11	58
